# From patent publication US20110224232A1 (Board of Regents, The University of Texas System, priority 2008, published 2011)
# “Also recorded” adds a separate entry of the source.
# Columns and labels:
# [1] = tested on: Aspergillus fumigatus clinical isolate 293 (AF 293); assay: Survival of A. fumigatus-infected immunosuppressed mice (Kaplan-Meier); format: in vivo; settings: for Percent Survival / Median Survival: A. fumigatus-infected female ICR mice, VOR inhalation BID 30-40 mg/kg, AmB intraperitoneal QD 1 mg/kg; for Percent Survival: to Day +12
# Text: Conidia were harvested from Aspergillus fumigatus clinical isolate 293 (AF 293) cultures grown on potato dextrose agar (Hardy Diagnostics, Santa Maria, Calif.) by washing and scraping agar surfaces with 0.1% Tween 80 in sterile physiological saline and filtering through sterile glass wool. Conidia were re-suspended to achieve a final inoculum of ˜1×10^9 conidia/mL, as confirmed by hemocytometer counts and serial plating.
# Mice were rendered immunosuppressed by intraperitoneal cyclophosphamide (250 mg/kg) and subcutaneous cortisone acetate (250 mg/kg) two days prior to inoculation (Day −2). Both cyclophosphamide (200 mg/kg intraperitoneal) and cortisone acetate (250 mg/kg subcutaneously) were re-administered on Day +3 following inoculation. Mice also received prophylactic antibiotic therapy of ceftazidime 50 mg/kg administered sub-cutaneously on Day −2 through Day +7.
# To simulate pulmonary pathogenesis, mice were placed inside an acrylic chamber, and A. fumigatus conidia were introduced by aerosolizing the conidial suspension with a small particle nebulizer (Hudson Micro Mist, Hudson RCI, Temecula, Calif.) driven by compressed air. A standard exposure time of 1 hour was used to allow for complete aerosolization of the conidial suspension. Starting inocula were assessed by colony forming unit (CFU) enumeration from mice one hour post-inoculation.
# The inhaled control group received 20 minute nebulizations of 100 mg/mL CAPTISOL® solutions BID beginning on Day −2 and continuing through Day +7. The intraperitoneal AmB group received 1 mg/kg Amphotericin B deoxycholate (Apothecon, Princeton, N.J.) by intraperitoneal injection (IP) once daily (QD) on Day +1 and continuing through Day +7 (FIG. 2).
# Statistical analyses were conducted as follows. Survival was plotted by Kaplan-Meier analysis, and differences in median survival and percent survival between prophylaxis groups were analyzed by the log-rank test and chi-square test, respectively, using Prism version 4 software (GraphPad, San Diego, Calif.). […] A p-value of ≦0.05 was considered statistically significant for all comparisons.
# Aspergillus fumigatus [2] = assay: Pulmonary fungal burden by colony forming units in infected mice; format: in vivo
# Protocol: (§1) Mice were monitored for an additional 5 days following discontinuation of treatment. Animals that appeared moribund prior to the end of the study were euthanized by halothane and death was recorded as occurring the next day. 12 mice were randomly selected from each group and euthanized on Day +8 for fungal burden analysis while any remaining mice were euthanized on Day +12. 2 additional mice were randomly selected from each group and euthanized on Day +8 and Day +12 for histological analysis
# Lungs were homogenized in sterile saline (total volume 2 mL) supplemented with gentamicin and chloramphenicol using a tissue homogenizer (Polytron Dispensing and Mixing Technology PT 2100, Kinematica, Cincinnati, Ohio). Serial dilutions were prepared in sterile saline and plated in duplicate onto potato dextrose agar. Following 24 hours of incubation at 37° C., colonies were enumerated and colony forming units (CFU) per gram of lung tissue for each animal were calculated.
# (§2) Statistical analyses were conducted as follows. Survival was plotted by Kaplan-Meier analysis, and differences in median survival and percent survival between prophylaxis groups were analyzed by the log-rank test and chi-square test, respectively, using Prism version 4 software (GraphPad, San Diego, Calif.). Differences in fungal burden endpoints (CFU/g and CE) were assessed for significance by analysis of variance with Tukey's post-test for multiple comparisons. A p-value of ≦0.05 was considered statistically significant for all comparisons.
# Aspergillus fumigatus [3] = assay: Pulmonary fungal burden by real-time quantitative PCR (conidial equivalents) in infected mice; format: in vivo; settings: Day + 8 per table footnote
# Protocol: as §1
# Pulmonary fungal burden was also quantified by real-time quantitative polymerase chain reaction (qPCR) using previously described methods. Briefly, DNA was extracted from […] of lung homogenate with the use of a commercially available kit (DNeasy Tissue Kit, Qiagen, Valencia, Calif.) according to the manufacturer's instructions. DNA samples were analyzed in duplicate with the use of the ABI PRISM 7300 sequence-detection system (Applied Biosystems, Foster City, Calif.) with primers and dual-labeled fluorescent hybridization probes specific for the A. fumigatus 1,3-β-glucan synthase (FKS) gene (GenBank accession number U79728). The threshold cycle (Ct) of each sample was interpolated from a six-point standard curve generated by spiking naive mouse lungs with known amounts of conidia (102 to 107). An internal standard was amplified in separate reactions to correct for differences in DNA recovery. The resulting data was expressed as conidial equivalents (CE).
# as §2
# A. fumigatus [4] = assay: Lung histopathology, pulmonary lesion counts in A. fumigatus-infected mice; format: in vivo, Aspergillus fumigatus
# Protocol: Histopathological changes in lung tissue were evaluated and compared for four mice in each of the inhaled voriconazole, inhaled control, and intraperitoneal AmB groups. The inhaled control was aerosolized CAPTISOL® at a concentration of 100 mg/mL over 20 minutes. On day 8 post inoculation, animals were euthanized using halothane and 10% volume/volume formaldehyde was instilled into the lungs via the trachea. Lungs were then harvested and placed into 10% volume/volume formaldehyde. Tissue was fixed in formaldehyde for an adequate period of time followed by processing and embedding into paraffin wax. Coronal sections of the entire lung were obtained at a thickness of 4-6 μm and mounted on slides. Sections were stained with hematoxylin and eosin and viewed by light microscopy with a Zeiss AxioVision Imager at 10× magnification. Two investigators were blinded and independently evaluated each lung section. The extent of lung damage caused by invasive hyphae was recorded and quantified by counting and normalizing the number of gross lesions.
# Normalization of the histopathology results was achieved by using the number of lung pieces (sections) on the slide as a denominator. The total number of lesions on the slide were counted and then divided by the number of pieces of tissue on that slide. This was done because the number of pieces of tissue per slide (again, all from the same cut of lung from the same animal) ranged from 4 to 9. For example, the normalized number of lesions would be 0.4 if 2 lesions were observed on a slide with 5 lung pieces. Similarly, the normalized value would be 0.14 if 1 lesion was observed on a slide with 7 lung pieces.
# A. fumigatus [5] = settings: cited from earlier work
# Aspergillus fumigatus [6] = settings: cited from earlier work
# [7] = single dose of IV or oral voriconazole; cited from earlier work
# [8] = Single-dose pharmacokinetics of inhaled voriconazole in mice; settings: for AUC(0-t): AUC (0-6 hr) Plasma
# Protocol: Initially, a single dose PK profile was performed on large mice with a 5 L/min flow rate through the dosing apparatus (see Table 2).
# A subsequent PK study was then performed on smaller mice due to the mouse size constraints of the murine model of infection at a lower air flow rate of 1 L/min. Male ICR mice were exposed to a 20 minute nebulization period. […] Plasma was separated from whole blood collected to determine drug concentration (adapted from Pascual et al., Antimicrobial Agents and Chemotherapy, 2007, 51:1). Lungs were harvested and homogenized to determine drug concentration (adapted from Lutsar et al., Clinical Infectious Disease, 2003, 37:5).
# Mice were dosed using a nose-only dosing apparatus as illustrated in FIGS. 1A-1B. VFEND® IV was reconstituted, diluted, and aerosolized as described previously. The airflow through the dosing apparatus was varied from 1-5 L/min (see Table 2). Sufficient solution was added to the medication reservoir to have residual volume remaining after 20 minutes. The nose-only dosing apparatus and nebulizer were disassembled between each dose, cleaned, dried, and reassembled.
# Pharmacokinetic (PK) profiles were determined for high flow rate and low flow rate mice groups following a single 20 minute nebulization. Mice were ordered with masses of 32 g (high flow rate mice) and 20 g (low flow rate mice). Two or more mice were sacrificed by carbon dioxide narcosis at each time point (high flow rate mice—5, 10, 20, 30, 60, 90, 150, 240, 360, 720, and 1440 minutes or low flow rate mice—10, 30, 60, 240, 360, and 480 minutes). Whole blood was collected by cardiac puncture, stored in heparinized vials, and centrifuged to obtain plasma. Surgery was also performed on each mouse to extract the whole lungs which were then homogenized in 1 mL of normal saline. […] The trapezoidal rule was used to estimate the area under the curve (AUC) for each concentration versus time profile.
# Briefly, sterile water for injection (SWFI) was added to lung tissue and homogenized using a rotor and stator high shear homogenizer. Proteins and other cellular components were precipitated following addition of 0.2M borate buffer (pH 9.0), ethyl acetate, and centrifugation. Supernatant was then extracted three times and liquid was evaporated under a gentle stream of nitrogen.
# For lung tissue, SWFI was added to lung tissue and homogenized using a rotor and stator high shear homogenizer. […] Supernatant was then extracted three times and liquid was evaporated under a gentle stream of nitrogen.
# Each sample was analyzed using a Waters Breeze liquid chromatograph (Waters Corporation, Milford Mass.) equipped with a heated (35° C.) JUPITER® C18 (150 mm×4.6 mm, 5 micrometer) with a Universal security guard (Widepore C18) guard column (Phenomenex, Torrance, Calif.). The sample volume was 50 microliter with a UV detection wavelength of 254 nm. The mobile phase consisted of a 50:50 mixture of 0.01 M sodium acetate buffer and methanol at 1 mL/min.
# Male ICR mice were dosed using a nose-only dosing apparatus as illustrated in FIGS. 1A and 1B. The airflow through the dosing apparatus was varied from 1-5 L/min. VFEND® IV was reconstituted, diluted, and sufficient solution was added to the medication reservoir to have residual volume remaining after 20 minutes. The nose-only dosing apparatus and nebulizer were disassembled between each dose, cleaned, dried, and reassembled.
# Single-dose pharmacokinetic profiles were determined in two groups of mice: a high flow-rate group (5 L/min air flow, 32 g average mass) and low flow-rate group (1 L/min, 20 g average mass). Two or more mice were sacrificed by carbon dioxide narcosis at each time point (high flow-rate: 5, 10, 20, 30, 60, 90, 150, 240, 360, 720, and 1440 minutes or low flow-rate mice: 10, 30, 60, 240, 360, and 480 minutes). Whole blood was collected by cardiac puncture into heparinized vials and centrifuged to obtain plasma.
# [9] = normalized lesions, listed as VRC
# [10] = Small Mice (low flow rate, 1 L/min), single dose
smiles,measurement,setting,value
"CC(c1ncncc1F)C(O)(Cn1cncn1)c1ccc(F)cc1F (stereo not shown) [Voriconazole, 2-(2,4-difluorophenyl)-3-(5-fluoropyrimidin-4-yl)-1-(1H-1,2,4-triazol-1-yl)butan-2-ol]",Percent Survival,[1],66.7%
same,Percent Survival,[1]; listed as voriconazole,Approximately 67%
same,Median Survival,[1],>12 days
same,Median Survival,[1]; listed as voriconazole,over 12 days
same,difference in survival versus negative control (inhaled Captisol) and positive control (intraperitoneal Amphotericin B),[1]; Kaplan-Meier survival curves,statistically significant (p<0.05) difference in survival
same,"A - Day 8 Fungal Burden Determined by CFU, Mean",Aspergillus fumigatus [2]; Day +8,4.26 log10 CFU
same,"A - Day 8 Fungal Burden Determined by CFU, Median",Aspergillus fumigatus [2]; Day +8,4.21 log10 CFU
same,"A - Day 8 Fungal Burden Determined by CFU, Range",Aspergillus fumigatus [2]; Day +8,(3.62-4.68) log10 CFU
same,"B - Fungal Burden Determined by CFU for All Mice, Mean","Aspergillus fumigatus [2]; all samples, day 8 and day 12",3.88 log10 CFU
same,"B - Fungal Burden Determined by CFU for All Mice, Median","Aspergillus fumigatus [2]; all samples, day 8 and day 12",4.14 log10 CFU
same,"B - Fungal Burden Determined by CFU for All Mice, Range","Aspergillus fumigatus [2]; all samples, day 8 and day 12",(2.60-4.68) log10 CFU
same,reduction in fungal burden between the groups (CFUs per gram of lung mass and CEs by qPCR),Aspergillus fumigatus [2]; in vivo,no significant reduction in fungal burden
same,"C - Conidial Equivalents Determined by qPCR, Mean",Aspergillus fumigatus [3],4.56 log10 conidial equivalents
same,"C - Conidial Equivalents Determined by qPCR, Median",Aspergillus fumigatus [3],4.59 log10 conidial equivalents
same,"C - Conidial Equivalents Determined by qPCR, Range",Aspergillus fumigatus [3],(3.77-5.32) log10 conidial equivalents
same,"D - Conidial Equivalents per Gram of Lung Tissue Determined by Qpcr, Mean",Aspergillus fumigatus [3]; normalized for wet lung weight,5.19 log10 conidial equivalents per
same,"D - Conidial Equivalents per Gram of Lung Tissue Determined by Qpcr, Median",Aspergillus fumigatus [3]; normalized for wet lung weight,5.24 log10 conidial equivalents per
same,"D - Conidial Equivalents per Gram of Lung Tissue Determined by Qpcr, Range",Aspergillus fumigatus [3]; normalized for wet lung weight,(4.45-5.98) log10 conidial equivalents per
same,lung histopathology findings (in words),"A. fumigatus [4]; A. fumigatus-infected mice, aerosolized voriconazole, intraperitoneal amphotericin B",fewer signs of invasive disease and markedly improved histological findings; also recorded: fewer signs of invasive disease and markedly improved histological results; also recorded: Invasive hyphae and tissue destruction characteristic of invasive pulmonary aspergillosis were not observed
same,"pulmonary lesions normalized for the number of lung tissue pieces per slide, 25th Percentile",A. fumigatus [4]; normalized lesions,0.19
same,"pulmonary lesions normalized for the number of lung tissue pieces per slide, 75th Percentile",A. fumigatus [4]; normalized lesions,0.51
same,"pulmonary lesions normalized for the number of lung tissue pieces per slide, Maximum",A. fumigatus [4]; normalized lesions,0.55
same,"pulmonary lesions normalized for the number of lung tissue pieces per slide, Mean",A. fumigatus [4]; normalized lesions,0.4
same,"pulmonary lesions normalized for the number of lung tissue pieces per slide, Median",A. fumigatus [4]; normalized lesions,0.37
same,"pulmonary lesions normalized for the number of lung tissue pieces per slide, Minimum",A. fumigatus [4]; normalized lesions,0.14
same,"pulmonary lesions normalized for the number of lung tissue pieces per slide, 25th Percentile",A. fumigatus [4]; [9],0.2
same,"pulmonary lesions normalized for the number of lung tissue pieces per slide, 75th Percentile",A. fumigatus [4]; [9],0.5
same,"pulmonary lesions normalized for the number of lung tissue pieces per slide, Maximum",A. fumigatus [4]; [9],0.6
same,"pulmonary lesions normalized for the number of lung tissue pieces per slide, Median",A. fumigatus [4]; [9],0.4
same,"pulmonary lesions normalized for the number of lung tissue pieces per slide, Minimum",A. fumigatus [4]; [9],0.1
same,"pulmonary lesions in all available histological samples, 25th Percentile",A. fumigatus [4]; number of lesions,1.3
same,"pulmonary lesions in all available histological samples, 75th Percentile",A. fumigatus [4]; number of lesions,4.3
same,"pulmonary lesions in all available histological samples, Maximum",A. fumigatus [4]; number of lesions,5.0
same,"pulmonary lesions in all available histological samples, Mean",A. fumigatus [4]; number of lesions,2.5
same,"pulmonary lesions in all available histological samples, Median",A. fumigatus [4]; number of lesions,2.0
same,"pulmonary lesions in all available histological samples, Minimum",A. fumigatus [4]; number of lesions,1.0
same,fungicidal activity at a low concentration,A. fumigatus [5],0.5 microgram/mL
same,EC50 value (concentration resulting in 50% inhibition of growth compared to control),A. fumigatus [5]; non-linear regression analysis,0.18 micrograms/mL
same,MIC50,Aspergillus fumigatus [6]; A. fumigatus clinical test isolates,0.25 µg/mL
same,minimum inhibitory concentrations for 90% of isolates (MIC90),Aspergillus fumigatus [6]; Aspergillus fumigatus,0.5-1 microgram/mL
same,MIC90,Aspergillus fumigatus [6]; red line in FIG. 10,0.52 µg/mL
same,typical Tmax in human plasma,[7],50 to 66 min
same,Cmax Lung,"[8]; Large Mice (high flow rate, 5 L/min), single dose",1.62 microgram/g
same,AUC (0-6 hr) Lung,[8]; [10],2408.0 microgram × min/g
same,Cmax Lung,[8]; [10],11.02 microgram/g
same,Kp,"[8]; male, ICR, mouse, in vivo, inhaled or intranasal",1.4 to 1.6
same,Tmax,"[8]; male, ICR, mouse, lung, inhaled or intranasal, 6.09 microgram/mL, Tmax Lung, Small Mice (low flow rate, 1 L/min), single dose, 20 minute nebulization",≤ 30 min
same,Tmax,"[8]; male, ICR, mouse, lung, inhaled or intranasal, Lung Tmax, summary table",10 to 30 min
same,Tmax,"[8]; male, ICR, mouse, lung, inhaled or intranasal, Tmax Lung, Large Mice (high flow rate, 5 L/min), single dose, 20 minute nebulization",10 min
same,Tmax,"[8]; male, ICR, mouse, lung, inhaled or intranasal, Tmax Lung, Small Mice (low flow rate, 1 L/min), single dose, 20 minute nebulization",30 min
same,Tmax,"[8]; male, ICR, mouse, plasma (heading says blood), inhaled or intranasal, Blood Tmax, summary table",20 to 30 min
same,Cmax,"[8]; male, ICR, mouse, plasma, inhaled or intranasal, 6.09 microgram/mL, Cmax Plasma, Small Mice (low flow rate, 1 L/min), single dose",7090 ng/mL
same,Tmax,"[8]; male, ICR, mouse, plasma, inhaled or intranasal, 6.09 microgram/mL, Tmax Plasma, Small Mice (low flow rate, 1 L/min), single dose, 20 minute nebulization",≤ 30 min
same,AUC(0-t),"[8]; male, ICR, mouse, plasma, inhaled or intranasal, Large Mice (high flow rate, 5 L/min), single dose",2270 ng·h/mL
same,AUC(0-t),"[8]; male, ICR, mouse, plasma, inhaled or intranasal, Small Mice (low flow rate, 1 L/min), single dose",25800 ng·h/mL
same,Cmax,"[8]; male, ICR, mouse, plasma, inhaled or intranasal, Blood Cmax, single-dose",7090 ng/mL
same,Cmax,"[8]; male, ICR, mouse, plasma, inhaled or intranasal, Cmax Plasma, Large Mice (high flow rate, 5 L/min), single dose",1180 ng/mL
same,Tmax,"[8]; male, ICR, mouse, plasma, inhaled or intranasal, Tmax Plasma, Large Mice (high flow rate, 5 L/min), single dose, 20 minute nebulization",20 min
same,Tmax,"[8]; male, ICR, mouse, plasma, inhaled or intranasal, Tmax Plasma, Small Mice (low flow rate, 1 L/min), single dose, 20 minute nebulization",30 min
same,Lung Cmax,"[8]; single-dose, mouse",11020 ng/mL
same,increase in total drug exposure as measured by AUC0-6 for lung tissue and plasma,[8]; slower flow rate (small mice) versus high flow rate (large mice),> 10 fold
